Source: ChEMBL document CHEMBL5096221, “Discovery of a Highly Potent and Orally Bioavailable STAT3 Dual Phosphorylation Inhibitor for Pancreatic Cancer Treatment” (J Med Chem, 2022)
Activity calls are given as the source filed them. The rule behind the calls is not given here.

Columns and labels:
CFPAC-1 [1] = experiment: Inhibition of mitochondrial respiration in human CFPAC-1 cells assessed as reduction in basal respiration rate at 1 to 30 nM incubated for 1 hr by seahorse XF96 flux analyzer; format: functional, cell-based; settings: dose 1-30 nM, DDE = dose-dependent effect
[2] = molecular target: T1, Signal transducer and activator of transcription 3 (Homo sapiens, UniProt P40763); experiment: Inhibition of STAT3 in human Capan-2 cells assessed as inhibition of IL-6 stimulated STAT3 phosphorylation at Tyr 705 at 1 to 30 nM by western blot assay; format: cell-based; settings: dose 1-30 nM, DDE = dose-dependent effect
T1 sequence (P40763 whole entry): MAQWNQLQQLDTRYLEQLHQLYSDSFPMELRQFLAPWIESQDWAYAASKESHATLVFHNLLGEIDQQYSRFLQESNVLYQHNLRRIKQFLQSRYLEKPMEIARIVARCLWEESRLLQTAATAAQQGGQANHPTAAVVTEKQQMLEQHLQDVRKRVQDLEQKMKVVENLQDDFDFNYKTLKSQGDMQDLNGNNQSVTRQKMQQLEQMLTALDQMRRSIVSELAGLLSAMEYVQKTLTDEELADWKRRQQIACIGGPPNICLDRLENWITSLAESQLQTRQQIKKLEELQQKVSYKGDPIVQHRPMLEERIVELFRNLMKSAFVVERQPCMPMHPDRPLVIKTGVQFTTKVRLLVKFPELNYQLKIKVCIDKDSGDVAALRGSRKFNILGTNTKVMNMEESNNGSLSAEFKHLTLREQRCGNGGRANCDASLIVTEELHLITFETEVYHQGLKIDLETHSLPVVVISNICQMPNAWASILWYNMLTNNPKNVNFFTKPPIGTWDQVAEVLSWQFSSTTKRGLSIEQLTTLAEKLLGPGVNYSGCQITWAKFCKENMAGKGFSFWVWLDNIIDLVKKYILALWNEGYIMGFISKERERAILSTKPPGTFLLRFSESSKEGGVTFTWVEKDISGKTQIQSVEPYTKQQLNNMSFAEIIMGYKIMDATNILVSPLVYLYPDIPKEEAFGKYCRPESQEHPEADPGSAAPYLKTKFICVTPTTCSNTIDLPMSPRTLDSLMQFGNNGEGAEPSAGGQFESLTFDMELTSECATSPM

CFPAC-1 [3] = experiment: Inhibition of mitochondrial respiration in human CFPAC-1 cells assessed as reduction in oxygen consumption rate at 1 to 30 nM incubated for 1 hr by seahorse XF96 flux analyzer; format: functional, cell-based; settings: dose 1-30 nM, DDE = dose-dependent effect
[4] = molecular target: T1, Signal transducer and activator of transcription 3; experiment: Inhibition of STAT3 in human Capan-2 cells assessed as inhibition of STAT3 phosphorylation at Tyr 705 at 1 to 30 nM incubated for 22 to 24 hrs by western blot analysis; format: cell-based; settings: dose 1-30 nM, time 22-24 hrs, DDE = dose-dependent effect
MIA PaCa-2 = experiment: Anti-proliferative activity against human MIA PaCa-2 cells assessed as cell growth inhibition incubated for 72 hrs by MTS assay; format: functional, cell-based; settings: MIA PaCa-2, 72 h
[5] = molecular target: T1, Signal transducer and activator of transcription 3; experiment: Inhibition of STAT3 in human BXPC-3 cells assessed as inhibition of STAT3 phosphorylation at Ser 727 at 1 to 30 nM incubated for 22 to 24 hrs by western blot analysis; format: cell-based; settings: dose 1-30 nM, time 22-24 hrs, DDE = dose-dependent effect
BXPC-3 [6] = experiment: Inhibition of mitochondrial respiration in human BXPC-3 cells at 1 to 30 nM incubated for 1 hr by seahorse XF96 flux analyzer; format: functional, cell-based; settings: dose 1-30 nM, DDE = dose-dependent effect
[7] = molecular target: T1, Signal transducer and activator of transcription 3; experiment: Inhibition of STAT3 in human BXPC-3 cells assessed as inhibition of STAT3 phosphorylation at Ser 727 at 30 nM incubated for 4 to 24 hrs by western blot analysis; format: cell-based; settings: time 4-24 hrs, TDE = time-dependent effect
Cytochrome P450 2D6 = Cytochrome P450 2D6 (Homo sapiens, UniProt P10635); experiment: Inhibition of CYP2D6 in human liver microsomes using dextromethorphan as substrate incubated for 60 mins in presence of NADPH by HPLC analysis; format: ADME, Microsome
Cytochrome P450 2D6, sequence (P10635 whole entry): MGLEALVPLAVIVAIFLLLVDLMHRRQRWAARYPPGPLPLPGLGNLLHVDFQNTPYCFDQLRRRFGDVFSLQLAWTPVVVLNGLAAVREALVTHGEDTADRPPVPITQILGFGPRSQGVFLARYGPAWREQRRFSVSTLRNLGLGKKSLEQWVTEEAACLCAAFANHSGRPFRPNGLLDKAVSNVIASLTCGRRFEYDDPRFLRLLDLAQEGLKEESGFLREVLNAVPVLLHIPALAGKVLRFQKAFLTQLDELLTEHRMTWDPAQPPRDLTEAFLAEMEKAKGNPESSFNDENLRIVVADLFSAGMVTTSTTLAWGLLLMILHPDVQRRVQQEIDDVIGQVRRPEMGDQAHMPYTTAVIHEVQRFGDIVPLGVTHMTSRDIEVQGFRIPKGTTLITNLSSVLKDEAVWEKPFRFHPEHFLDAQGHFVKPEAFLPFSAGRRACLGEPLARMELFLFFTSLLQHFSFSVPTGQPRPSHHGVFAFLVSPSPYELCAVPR

[8] = AUC (0-24hrs) in BALB/c mouse at 1 mg/kg,iv measured upto 24 hrs by LC-MS/MS analysis; format: ADME, organism-based; parameters: time < 24 hrs, dose 1 mg/kg, route iv; settings: in vivo
Cytochrome P450 1A2 = molecular target: T2, Cytochrome P450 1A2 (Homo sapiens, UniProt P05177); experiment: Inhibition of CYP1A2 in human liver microsomes using phenacetin as substrate incubated for 30 mins in presence of NADPH by HPLC analysis; format: ADME, Microsome
T2 sequence (P05177 whole entry): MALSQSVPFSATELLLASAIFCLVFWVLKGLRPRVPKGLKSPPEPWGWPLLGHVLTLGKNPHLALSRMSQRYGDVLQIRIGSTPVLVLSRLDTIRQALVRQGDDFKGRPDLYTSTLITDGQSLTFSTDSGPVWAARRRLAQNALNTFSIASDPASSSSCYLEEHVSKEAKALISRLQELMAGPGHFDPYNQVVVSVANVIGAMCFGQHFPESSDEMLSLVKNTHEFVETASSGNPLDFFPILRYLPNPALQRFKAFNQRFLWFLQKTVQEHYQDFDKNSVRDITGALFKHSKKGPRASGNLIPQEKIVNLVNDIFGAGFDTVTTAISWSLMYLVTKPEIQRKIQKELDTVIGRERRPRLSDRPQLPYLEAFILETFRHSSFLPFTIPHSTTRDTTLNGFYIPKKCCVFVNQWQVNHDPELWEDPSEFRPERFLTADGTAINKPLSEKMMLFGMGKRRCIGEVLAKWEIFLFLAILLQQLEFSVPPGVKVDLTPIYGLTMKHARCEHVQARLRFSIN

[9] = molecular target: T1, Signal transducer and activator of transcription 3; experiment: Inhibition of STAT3 in human Capan-2 cells assessed as reduction of c-Myc expression at 30 nM incubated for 4 to 24 hrs by western blot analysis; format: cell-based; settings: time 4-24 hrs, TDE = time-dependent effect
[10] = Microsomal stability in dog liver microsomes assessed as compound remaining incubated for 60 mins in presence of NADPH by LC-MS/MS analysis; format: ADME, Canis lupus familiaris, Microsome; settings: read-out: Stability
[11] = molecular target: T1, Signal transducer and activator of transcription 3; experiment: Inhibition of STAT3 in human Capan-2 cells assessed as inhibition of STAT3 phosphorylation at Ser 727 at 1 to 30 nM incubated for 22 to 24 hrs by western blot analysis; format: cell-based; settings: dose 1-30 nM, time 22-24 hrs, DDE = dose-dependent effect
[12] = MRT (0 to last) in BALB/c mouse at 10 mg/kg,po measured upto 24 hrs by LC-MS/MS analysis; format: ADME, organism-based; settings: in vivo
Mus musculus = experiment: In vivo inhibition of STAT3 in BALB/c mouse xenografted with human BXPC-3 cells assessed as inhibition of STAT3 phosphorylation at Ser 727 at 10 mg/kg,po administrated once daily for 8 weeks by immunohistochemical analysis; format: functional, organism-based
[13] = Cmax in BALB/c mouse at 10 mg/kg,po measured upto 24 hrs by LC-MS/MS analysis; format: ADME, organism-based; parameters: time < 24 hrs, dose 10 mg/kg, route po; settings: in vivo
[14] = molecular target: T1, Signal transducer and activator of transcription 3; experiment: Thermal stabilization of STAT3 in human BXPC-3 cells at 10 microM at 44.6 degreeC incubated for 1 hrs by cellular thermal shift assay; format: cell-based
[15] = Toxicity in BALB/c mouse xenografted with human BXPC-3 cells assessed as effect on liver at 30 mg/kg,po administrated once daily for 8 weeks by H and E staining based microscopic analysis; format: organism-based; settings: in vivo, 1344 h
[16] = molecular target: T1, Signal transducer and activator of transcription 3; experiment: Inhibition of STAT3 in human BXPC-3 cells assessed as inhibition of STAT3 phosphorylation at Tyr 705 at 10 nM incubated for 22 to 24 hrs by western blot analysis; format: cell-based; settings: time 22-24 hrs
[17] = Toxicity in BALB/c mouse xenografted with human BXPC-3 cells assessed as effect on spleen at 10 mg/kg,po administrated once daily for 8 weeks by H and E staining based microscopic analysis; format: organism-based; settings: in vivo, 1344 h
BXPC-3 [18] = experiment: Anti-proliferative activity against human BXPC-3 cells assessed as cell growth inhibition incubated for 72 hrs by MTS assay; format: functional, cell-based; settings: BXPC-3, 72 h
[19] = Toxicity in BALB/c mouse xenografted with human BXPC-3 cells assessed as body weight change at 10 mg/kg,po administrated once daily for 8 weeks; format: organism-based; settings: in vivo, 1344 h
[20] = molecular target: Proto-oncogene tyrosine-protein kinase Src (Homo sapiens, UniProt P12931); experiment: Inhibition of SRC (unknown origin)
Proto-oncogene tyrosine-protein kinase Src, sequence (P12931 2-536 limits assumed): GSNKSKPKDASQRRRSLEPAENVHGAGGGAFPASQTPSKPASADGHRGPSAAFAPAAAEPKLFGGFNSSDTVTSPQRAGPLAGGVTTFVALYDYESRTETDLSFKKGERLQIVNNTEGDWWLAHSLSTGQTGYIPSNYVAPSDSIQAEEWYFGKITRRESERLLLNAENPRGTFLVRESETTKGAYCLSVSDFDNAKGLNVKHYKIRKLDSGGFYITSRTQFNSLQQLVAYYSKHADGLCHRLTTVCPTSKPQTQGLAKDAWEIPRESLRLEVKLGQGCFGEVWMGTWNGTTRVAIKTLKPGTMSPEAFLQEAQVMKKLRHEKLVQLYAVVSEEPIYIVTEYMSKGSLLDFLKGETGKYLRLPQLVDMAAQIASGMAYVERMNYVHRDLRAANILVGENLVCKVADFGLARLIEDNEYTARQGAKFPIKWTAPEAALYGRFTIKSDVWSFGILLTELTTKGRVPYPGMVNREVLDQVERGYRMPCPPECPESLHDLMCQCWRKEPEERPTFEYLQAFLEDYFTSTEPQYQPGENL

Capan-2 = experiment: Inhibition of colony formation in human Capan-2 cells at 3 to 10 nM incubated for 5 to 7 days by crystal violet staining assay; format: functional, cell-based; settings: dose 3-10 nM, time 5-7 day, DDE = dose-dependent effect
[21] = AUC (0-infinity) in BALB/c mouse at 10 mg/kg,po measured upto 24 hrs by LC-MS/MS analysis; format: ADME, organism-based; parameters: time < 24 hrs, dose 10 mg/kg, route po; settings: in vivo
BXPC-3 [22] = experiment: Inhibition of mitochondrial respiration in human BXPC-3 cells assessed as reduction in maximal respiration rate at 1 to 30 nM incubated for 1 hr by seahorse XF96 flux analyzer; format: functional, cell-based; settings: dose 1-30 nM, DDE = dose-dependent effect
[23] = molecular target: Tyrosine-protein kinase JAK1 (Homo sapiens, UniProt P23458); experiment: Inhibition of JAK1 (unknown origin)
Tyrosine-protein kinase JAK1, sequence (P23458 whole entry): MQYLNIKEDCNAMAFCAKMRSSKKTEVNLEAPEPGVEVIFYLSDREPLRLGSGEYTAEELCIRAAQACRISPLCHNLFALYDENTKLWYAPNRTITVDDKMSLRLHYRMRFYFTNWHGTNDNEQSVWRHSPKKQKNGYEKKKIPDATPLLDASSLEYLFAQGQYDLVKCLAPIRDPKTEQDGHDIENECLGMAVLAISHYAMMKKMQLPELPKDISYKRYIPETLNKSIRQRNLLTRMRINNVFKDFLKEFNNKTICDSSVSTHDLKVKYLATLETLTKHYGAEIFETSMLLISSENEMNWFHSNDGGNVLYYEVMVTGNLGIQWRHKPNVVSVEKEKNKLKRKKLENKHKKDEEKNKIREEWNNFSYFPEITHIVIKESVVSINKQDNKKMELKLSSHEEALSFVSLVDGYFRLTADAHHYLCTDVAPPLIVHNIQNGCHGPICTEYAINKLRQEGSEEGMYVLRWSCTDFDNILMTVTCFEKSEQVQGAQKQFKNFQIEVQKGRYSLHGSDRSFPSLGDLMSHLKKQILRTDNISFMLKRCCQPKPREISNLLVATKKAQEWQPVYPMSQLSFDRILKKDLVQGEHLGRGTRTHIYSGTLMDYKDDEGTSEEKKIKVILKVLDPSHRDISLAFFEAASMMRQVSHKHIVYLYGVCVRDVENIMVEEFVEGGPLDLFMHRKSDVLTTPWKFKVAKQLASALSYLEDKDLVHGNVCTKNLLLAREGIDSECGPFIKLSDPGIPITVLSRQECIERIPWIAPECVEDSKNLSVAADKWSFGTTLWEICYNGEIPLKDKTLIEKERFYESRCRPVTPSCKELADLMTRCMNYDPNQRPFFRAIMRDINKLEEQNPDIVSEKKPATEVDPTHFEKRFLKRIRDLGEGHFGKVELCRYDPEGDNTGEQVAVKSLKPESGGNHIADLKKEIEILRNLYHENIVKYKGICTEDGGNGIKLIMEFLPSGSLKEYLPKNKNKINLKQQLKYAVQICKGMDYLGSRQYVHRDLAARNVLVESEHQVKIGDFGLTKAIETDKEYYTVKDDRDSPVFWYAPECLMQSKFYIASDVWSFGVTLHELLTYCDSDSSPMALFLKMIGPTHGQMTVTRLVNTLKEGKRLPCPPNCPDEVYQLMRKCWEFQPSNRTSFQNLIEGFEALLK

[24] = Toxicity in BALB/c mouse xenografted with human BXPC-3 cells assessed as effect on heart at 10 mg/kg,po administrated once daily for 8 weeks by H and E staining based microscopic analysis; format: organism-based; settings: in vivo, 1344 h

In the case of `COc1ccc(-c2noc(-c3cnc(Oc4ccc5cc(C(=O)N6CCN(Cc7ccc(OCC(F)(F)F)cc7)CC6)n(C)c5c4)cn3)n2)cc1`, the inhibition (CFPAC-1 [1]) is reported as “Dde”, the inhibition [2] is reported as “Dde” and the inhibition (CFPAC-1 [3]) is reported as “Dde”. For the same compound, the inhibition [4] was “Dde”, the IC50 (MIA PaCa-2) was 0.0021 µM and the inhibition [5] was “Dde”. For the same compound, the inhibition (BXPC-3 [6]) was “Dde”, the inhibition [7] was “Tde” and the IC50 (Cytochrome P450 2D6) was greater than 50 µM. For the same compound, the AUC(0-t) at 24 h [8] was 9510 ng·h/mL, the IC50 (Cytochrome P450 1A2) was greater than 50 µM and the inhibition [9] was “Tde”. The remaining at 1 h [10] was 55.8%, the inhibition [11] was “Dde” and the MRT last at 24 h [12] was 9.8 h. The inhibition (Mus musculus) was “Active”, the Cmax [13] was 1810 ng/mL and the Activity [14] was “Active”. For the same compound, the Activity [15] was “Non-Toxic”, the inhibition [16] was “Active” and the Activity [17] was “Non-Toxic”. For the same compound, the IC50 (BXPC-3 [18]) was 0.0004 µM, the Activity [19] was “Non-Toxic” and the IC50 [20] was greater than 10 µM. The inhibition (Capan-2) was “Dde”, the AUC(0-inf) [21] was 34900 ng·h/mL and the inhibition (BXPC-3 [22]) was “Dde”. For the same compound, the IC50 [23] was greater than 10 µM and the Activity [24] was “Non-Toxic”.
